Here are results for three compounds from paper PMC10613967, “The anti-cancer efficacy of a novel phenothiazine derivative is independent of dopamine and serotonin receptor inhibition” (Frontiers in Oncology, 2023).

Counter-ions that a name gives are not always drawn. Like-named read-outs stand apart in the source and are kept apart here. A value given as a limit tells only on which side of the number the result lay.

The subject of data set [1] is A375 cells. Nature of the data set: Cell viability assay (Cell-Titer-Blue). It is filed as cell-based, human.
Description: (§1) Cells were seeded in 96-well plates at a suitable cell density for the growth rates of individual cell lines and the incubation time of the assay. […] Cell viability was determined using Cell-Titer-Blue assay (Promega) according to manufacturer’s instructions. The Synergy HT plate reader (Biotek, Winooski, VT) was used for signal quantification and the fluorescence values were normalized to the vehicle well for each cell line. Absolute IC50 and Growth rate inhibition GR50 ([27]) were calculated with GraphPadPrism software (GraphPad Software, Inc.).
Data set [2] concerns A375 cells. Nature of the data set: Cell cycle analysis (PI staining, flow cytometry). As to conditions: 24h. It is filed as cell-based, human.
Description: (§2) A375 cells were seeded at 250,000 cells/well in 6-well plates and left to attach overnight. […] For cell cycle analysis, cells were detached with trypsin, fixed in ethanol 70%, treated with RNase A, mixed with propidium iodide, and processed with the Becton Dickinson LSR II flow cytometer. Analysis was performed with ModFit LT software. […] Samples were processed with the Becton Dickinson LSR II flow cytometer, and the analysis was performed with FlowJo software. Annexin V positive and PI negative cells were counted as apoptotic cells.
Data set [3] relates to A375 cells. Nature of the data set: Immunofluorescence (α-tubulin, pericentrin, DNA). It is filed as cell-based, human. To be noted: 20µM, 24h. On the procedure: At the end of the incubation, cells were fixed in 4% PFA, permeabilized in PBS-0.2% Triton X100, and blocked in PBS-2.5% BSA before antibody incubation. Cells were incubated with anti-Tubulin and anti-Pericentrin antibodies overnight at 4°C, and then with secondary antibodies for 1 h at room temperature ( Table 1 ). All antibodies were diluted in PBS-2.5% BSA. The coverslips were then mounted on cover glass with a DAPI (4’,6-diamidino-2-phenylindole)-containing mounting media (Invitrogen P36962, Waltham, MA), and imaged with a Leica SP8 confocal microscope.

In data set [4] the test system is A375 cells. Nature of the data set: Apoptosis assay (Annexin V staining, flow cytometry). It is filed as cell-based, human. As to conditions: 24h exposure.
Description: as §2
The test system of data set [5] is variety of cancer cell types. To be noted: in vitro; read-out: IC50, cytotoxicity; cited from earlier work.
The test system of the next data set is MDA-MB-231. Nature of the data set: Cell viability assay (Cell-Titer-Blue). It is filed as cell-based, human. To be noted: 72h; read-out: Calculated IC50.
In a further data set the test system is HCC1806. Nature of the data set: Cell viability assay (Cell-Titer-Blue). It is filed as cell-based, human. As to conditions: 72h; read-out: Calculated IC50.
The next data set concerns ZR-75-1. Nature of the data set: Cell viability assay (Cell-Titer-Blue). It is filed as cell-based, human. To be noted: 72h; read-out: Calculated IC50.
The subject of the next data set is PC-3. Nature of the data set: Cell viability assay (Cell-Titer-Blue). It is filed as cell-based, human. To be noted: 72h; read-out: Calculated IC50.
The test system of the next data set is LNCaP. Nature of the data set: Cell viability assay (Cell-Titer-Blue). It is filed as cell-based, human. To be noted: 72h; read-out: Calculated IC50.
The subject of the next data set is DU145. Nature of the data set: Cell viability assay (Cell-Titer-Blue). It is filed as cell-based, human. To be noted: 72h; read-out: Calculated IC50.
The next data set has as its system 22Rv1. Nature of the data set: Cell viability assay (Cell-Titer-Blue). It is filed as cell-based, human. As to conditions: 72h; read-out: Calculated IC50.
In another data set the test system is HT29. Nature of the data set: Cell viability assay (Cell-Titer-Blue). It is filed as cell-based, human. As to conditions: 72h; read-out: Calculated IC50.
In another data set the test system is HCT116. Nature of the data set: Cell viability assay (Cell-Titer-Blue). It is filed as cell-based, human. As to conditions: 72h; read-out: Calculated IC50.
Another data set has as its system PANC1. Nature of the data set: Cell viability assay (Cell-Titer-Blue). It is filed as cell-based, human. As to conditions: 72h; read-out: Calculated IC50.
A further data set deals with BxPC3. Nature of the data set: Cell viability assay (Cell-Titer-Blue). It is filed as cell-based, human. As to conditions: 72h; read-out: Calculated IC50.
A further data set has as its system A498. Nature of the data set: Cell viability assay (Cell-Titer-Blue). It is filed as cell-based, human. To be noted: 72h; read-out: Calculated IC50.
In another data set the test system is 786-O. Nature of the data set: Cell viability assay (Cell-Titer-Blue). It is filed as cell-based, human. As to conditions: 72h; read-out: Calculated IC50.
The test system of the next data set is HepG2. Nature of the data set: Cell viability assay (Cell-Titer-Blue). It is filed as cell-based, human. As to conditions: 72h; read-out: Calculated IC50.
For the next data set, the system named is TCCSUP. Nature of the data set: Cell viability assay (Cell-Titer-Blue). It is filed as cell-based, human. To be noted: 72h; read-out: Calculated IC50.
The next data set deals with RT4. Nature of the data set: Cell viability assay (Cell-Titer-Blue). It is filed as cell-based, human. As to conditions: 72h; read-out: Calculated IC50.
The test system of another data set is U87. Nature of the data set: Cell viability assay (Cell-Titer-Blue). As to conditions: 72h; read-out: Calculated IC50. It is filed as cell-based, human.
For another data set, the system named is U251. Nature of the data set: Cell viability assay (Cell-Titer-Blue). It is filed as cell-based, human. As to conditions: 72h; read-out: Calculated IC50.
Another data set concerns SKMEL28. Nature of the data set: Cell viability assay (Cell-Titer-Blue). It is filed as cell-based, human. As to conditions: 72h; read-out: Calculated IC50.
For another data set, the system named is RPMI7951. Nature of the data set: Cell viability assay (Cell-Titer-Blue). It is filed as cell-based, human. To be noted: 72h; read-out: Calculated IC50.
In another data set the test system is Hs852T. Nature of the data set: Cell viability assay (Cell-Titer-Blue). It is filed as cell-based, human. To be noted: 72h; read-out: Calculated IC50.
For the next data set, the system named is A101D. Nature of the data set: Cell viability assay (Cell-Titer-Blue). It is filed as cell-based, human. To be noted: 72h; read-out: Calculated IC50.
Another data set relates to WM-266-4. Nature of the data set: Cell viability assay (Cell-Titer-Blue). To be noted: 72h; read-out: Calculated IC50. It is filed as cell-based, human.
The subject of another data set is A2058. Nature of the data set: Cell viability assay (Cell-Titer-Blue). It is filed as cell-based, human. To be noted: 72h; read-out: Calculated IC50.
Data set [6] relates to panel of cancer cell lines. Nature of the data set: Cell viability assay across the panel of cell lines. To be noted: 72h of drug exposure; read-out: Absolute IC50, range across the panel. It is filed as cell-based, human.
Description: (§3) All cell lines were grown at 37°C in a 5% CO2 atmosphere in the ATCC-specified medium containing 10% FBS and 1% NEAA ( Table 1 ).
as §1

Description for 22Rv1: as §1
Description for 786-O: as §3, §1
Description for A101D: as §3, §1
Description for A2058: as §3, §1
Description for A498: as §3, §1
Description for BxPC3: as §1
Description for DU145: as §3, §1
Description for HCC1806: as §3, §1
Description for HCT116: as §1
Description for HT29: as §1
Description for HepG2: as §3, §1
Description for Hs852T: as §3, §1
Description for LNCaP: as §3, §1
Description for MDA-MB-231: as §1
Description for PANC1: as §1
Description for PC-3: as §3, §1
Description for RPMI7951: as §1
Description for RT4: as §3, §1
Description for SKMEL28: as §1
Description for TCCSUP: as §3, §1
Description for U251: as §1
Description for U87: as §1
Description for WM-266-4: as §3, §1
Description for ZR-75-1: as §3, §1

Consider `CN(C)CCCN1c2ccccc2Sc2ccc(Cl)cc21` [Chlorpromazine, chlorpromazine hydrochloride], for which the IC50 in the data set with A375 cells [1] (Homo sapiens, A-375, 24h treatment, read-out: IC50, cell viability) was 13.6 µM. Besides, the “cells in the G2/M phase” value in the data set on A375 cells [2] (20µM) came out at 69.8%. Also, the “cell cycle arrest (in words)” value in the data set with A375 cells [2] is “induces a cell cycle arrest in G2/M”. Also, in the data set on A375 cells [3], the “mitotic phenotype by immunofluorescence” value is reported as “cells often appeared binucleated”.

For `OCCN1CCN(CCCN2c3ccccc3Sc3ccc(C(F)(F)F)cc32)CC1` [Fluphenazine, fluphenazine hydrochloride], the “concentrations inducing apoptosis (annexin V staining)” value in the data set with A375 cells [4] is given as no less than 20 µM. Also, the “concentrations inducing G0/G1 cell cycle arrest” value in the data set with A375 cells [2] is recorded as no less than 10 µM. In the data set with A375 cells [3], the “mitotic phenotype by immunofluorescence” value is “dramatic decrease in the number of cells in mitosis”. In addition, the IC50 in data set [5] was 5 to 20 µM.

In the case of `Cl.NCCCCCCNS(=O)(=O)c1cccc2c(Cl)cccc12` [W-7, W-7 hydrochloride], the IC50 with MDA-MB-231 is 34.6 µM; in the data set on HCC1806, 26.9 µM; with ZR-75-1 it was 25.2 µM; in the data set on PC-3, 40.8 µM; in the data set with LNCaP, 36.6 µM; in the data set on DU145 it was 37.3 µM. In addition, the IC50 was 39.1 µM in the data set on 22Rv1; 26.4 µM in the data set with HT29; 27.9 µM with HCT116; 32.7 µM in the data set with PANC1; 38.1 µM in the data set with BxPC3; 28 µM with A498. The IC50 was 33.5 µM with 786-O; 26.8 µM in the data set on HepG2; 25.9 µM with TCCSUP; 45.2 µM with RT4; 56.8 µM in the data set on U87; 30 µM with U251. The IC50 in the data set on A375 cells [1] (72h, read-out: Calculated IC50) was 21.8 µM; with SKMEL28, 29.3 µM; in the data set on RPMI7951 it was 26.5 µM; with Hs852T, 24.5 µM; with A101D, 26.9 µM; with WM-266-4 it was 28.2 µM. Moreover, the IC50 was 24.3 µM with A2058 and 21.8 to 56.8 µM in [6]. Further, in the data set with A375 cells [2], the “cell cycle arrest (in words)” value is on record as “did not induce a cell cycle arrest”.
